Experimental data: ChEMBL document CHEMBL3044672, “N9- and N7-(Chloromethyl Phenymethyl)Chloropurine Derivatives from , '-Dichloroxylenes: Synthesis and Anticancer Activity” (2005)

Assays:
Format in all cases: functional
SK-OV-3 = assay: Cytotoxicity against Homo sapiens (human) SKOV3 cells after 48 hr by sulforhodamine B assay; conditions: SK-OV-3, 48 h
OVCAR-8 = assay: Cytotoxicity against Homo sapiens (human) OVCAR8 cells after 48 hr by sulforhodamine B assay; conditions: OVCAR-8, 48 h
OVCAR-5 = assay: Cytotoxicity against Homo sapiens (human) OVCAR5 cells after 48 hr by sulforhodamine B assay; conditions: OVCAR-5, 48 h
IGROV-1 = assay: Cytotoxicity against Homo sapiens (human) IGROV1 cells after 48 hr by sulforhodamine B assay; conditions: IGROV-1, 48 h
OVCAR-3 = assay: Cytotoxicity against Homo sapiens (human) OVCAR3 cells after 48 hr by sulforhodamine B assay; conditions: OVCAR-3, 48 h
SK-MEL-5 = assay: Cytotoxicity against Homo sapiens (human) SK-MEL-5 cells after 48 hr by sulforhodamine B assay; conditions: SK-MEL-5, 48 h
SK-MEL-28 = assay: Cytotoxicity against Homo sapiens (human) SK-MEL-28 cells after 48 hr by sulforhodamine B assay; conditions: SK-MEL-28, 48 h
SK-MEL-2 = assay: Cytotoxicity against Homo sapiens (human) SK-MEL-2 cells after 48 hr by sulforhodamine B assay; conditions: SK-MEL-2, 48 h
LOX IMVI = assay: Cytotoxicity against Homo sapiens (human) LOXIMVI cells after 48 hr by sulforhodamine B assay
M14 = assay: Cytotoxicity against Homo sapiens (human) M14 cells after 48 hr by sulforhodamine B assay; conditions: M14, 48 h
U-251 = assay: Cytotoxicity against Homo sapiens (human) U251 cells after 48 hr by sulforhodamine B assay; conditions: U-251, 48 h
T47D = assay: Cytotoxicity against Homo sapiens (human) T47D cells after 48 hr by sulforhodamine B assay
BT-549 = assay: Cytotoxicity against Homo sapiens (human) BT549 cells after 48 hr by sulforhodamine B assay; conditions: BT-549, 48 h
[1] = Cytotoxicity against Homo sapiens (human) NCI-ADR-RES cells after 48 hr by sulforhodamine B assay
DU-145 = assay: Cytotoxicity against Homo sapiens (human) DU145 cells after 48 hr by sulforhodamine B assay; conditions: DU-145, 48 h
MCF7 [2] = assay: Cytotoxicity against Homo sapiens (human) MCF7 cells after 48 hr by sulforhodamine B assay; conditions: MCF7, 48 h
UO-31 = assay: Cytotoxicity against Homo sapiens (human) UO31 cells after 48 hr by sulforhodamine B assay; conditions: UO-31, 48 h
PC-3 = assay: Cytotoxicity against Homo sapiens (human) PC3 cells after 48 hr by sulforhodamine B assay; conditions: PC-3, 48 h
RXF 393 = assay: Cytotoxicity against Homo sapiens (human) RXF393 cells after 48 hr by sulforhodamine B assay; conditions: RXF 393, 48 h
CAKI-1 = assay: Cytotoxicity against Homo sapiens (human) Caki1 cells after 48 hr by sulforhodamine B assay; conditions: CAKI-1, 48 h
SF-295 = assay: Cytotoxicity against Homo sapiens (human) SF295 cells after 48 hr by sulforhodamine B assay; conditions: SF-295, 48 h
SF-268 = assay: Cytotoxicity against Homo sapiens (human) SF268 cells after 48 hr by sulforhodamine B assay; conditions: SF-268, 48 h
HT-29 = assay: Cytotoxicity against Homo sapiens (human) HT-29 cells after 48 hr by sulforhodamine B assay; conditions: HT-29, 48 h
HCC 2998 = assay: Cytotoxicity against Homo sapiens (human) HCC2998 cells after 48 hr by sulforhodamine B assay; conditions: HCC 2998, 48 h
NCI-H460 = assay: Cytotoxicity against Homo sapiens (human) NCI-H460 cells after 48 hr by sulforhodamine B assay; conditions: NCI-H460, 48 h
NCI-H322M = assay: Cytotoxicity against Homo sapiens (human) NCI-H322M cells after 48 hr by sulforhodamine B assay
NCI-H23 = assay: Cytotoxicity against Homo sapiens (human) NCI-H23 cells after 48 hr by sulforhodamine B assay; conditions: NCI-H23, 48 h
HOP-62 = assay: Cytotoxicity against Homo sapiens (human) HOP62 cells after 48 hr by sulforhodamine B assay; conditions: HOP-62, 48 h
EKVX = assay: Cytotoxicity against Homo sapiens (human) EKVX cells after 48 hr by sulforhodamine B assay
MOLT-4 = assay: Cytotoxicity against Homo sapiens (human) MOLT4 cells after 48 hr by sulforhodamine B assay; conditions: MOLT-4, 48 h
CCRF-CEM = assay: Cytotoxicity against Homo sapiens (human) CCRF-CEM cells after 48 hr by sulforhodamine B assay
MCF7 [3] = assay: Cytotoxicity against Homo sapiens (human) MCF7 cells assessed as cell growth at 10^-4 M after 48 hr by Alamar blue assay; conditions: MCF7, 48 h, read-out: Activity
[4] = read-out: LC50 (the source's name)

ClCc1ccccc1Cn1cnc2c(Cl)ncnc21
GI50 (SK-OV-3): 4.17 µM | LC50 (SK-OV-3): 85.1 µM | TGI (SK-OV-3): 15.8 µM | GI50 (OVCAR-8): 2240 nM | LC50 (concentration killing 50% of cells) (OVCAR-8): 20.4 µM | TGI (OVCAR-8): 5.24 µM | GI50 (OVCAR-5): 2450 nM | TGI (OVCAR-5): 6.6 µM | CC50 (OVCAR-5; [4]): 25.7 µM | GI50 (IGROV-1): 3.16 µM | LC50 (IGROV-1): 55 µM | TGI (IGROV-1): 8.91 µM | GI50 (OVCAR-3): 1410 nM | LC50 (OVCAR-3): 8.91 µM | TGI (OVCAR-3): 3.54 µM | GI50 (SK-MEL-5): 1410 nM | LC50 (SK-MEL-5): 5.88 µM | TGI (SK-MEL-5): 2880 nM | GI50 (SK-MEL-28): 2290 nM | LC50 (concentration killing 50% of cells) (SK-MEL-28): 24.6 µM | TGI (SK-MEL-28): 5.49 µM | GI50 (SK-MEL-2): 2750 nM | LC50 (concentration killing 50% of cells) (SK-MEL-2): > 100 µM | TGI (SK-MEL-2): 18.2 µM | GI50 (LOX IMVI): 2130 nM | LC50 (LOX IMVI): > 100 µM | TGI (LOX IMVI): 5.24 µM | GI50 (M14): 1950 nM | LC50 (M14): 7.24 µM | TGI (M14): 3.71 µM | GI50 (U-251): 2630 nM | LC50 (concentration killing 50% of cells) (U-251): 61.7 µM | TGI (U-251): 6.16 µM | GI50 (T47D): 17.8 µM | LC50 (T47D): > 100 µM | TGI (T47D): 61.7 µM | GI50 (BT-549): 1990 nM | LC50 (50% lethal concentration) (BT-549): 19.9 µM | TGI (BT-549): 5.49 µM | GI50 [1]: 2180 nM | LC50 (concentration killing 50% of cells) [1]: 10.5 µM | TGI [1]: 4.67 µM | GI50 (DU-145): 5.62 µM | LC50 (DU-145): > 100 µM | TGI (DU-145): 34.7 µM | GI50 (MCF7 [2]): 11 µM | LC50 (concentration killing 50% of cells) (MCF7 [2]): > 100 µM | TGI (MCF7 [2]): > 100 µM | GI50 (UO-31): 2630 nM | LC50 (concentration causing 50% net cell kill) (UO-31): 61.7 µM | TGI (UO-31): 10.5 µM | GI50 (PC-3): 3.02 µM | LC50 (concentration causing 50% cell kill) (PC-3): 53.7 µM | TGI (PC-3): 10.5 µM | GI50 (RXF 393): 440 nM | TGI (RXF 393): 2340 nM | CC50 (RXF 393; [4]): 7.41 µM | GI50 (CAKI-1): 1820 nM | TGI (CAKI-1): 4.17 µM | CC50 (CAKI-1; [4]): 9.33 µM | GI50 (SF-295): 10.5 µM | TGI (SF-295): 23.4 µM | CC50 (SF-295; [4]): 51.3 µM | GI50 (SF-268): 3.23 µM | TGI (SF-268): 10.9 µM | CC50 (SF-268; [4]): > 100 µM | GI50 (HT-29): 3.54 µM | TGI (HT-29): > 100 µM | CC50 (HT-29; [4]): > 100 µM | GI50 (HCC 2998): 1660 nM | TGI (HCC 2998): 3.54 µM | CC50 (HCC 2998; [4]): 7.41 µM | GI50 (NCI-H460): 15.5 µM | TGI (NCI-H460): 44.7 µM | CC50 (NCI-H460; [4]): > 100 µM | GI50 (NCI-H322M): 3.98 µM | TGI (NCI-H322M): 13.8 µM | CC50 (NCI-H322M; [4]): 43.6 µM | GI50 (NCI-H23): 2040 nM | TGI (NCI-H23): 4.36 µM | CC50 (NCI-H23; [4]): 9.33 µM | GI50 (HOP-62): 2510 nM | TGI (HOP-62): 6.02 µM | CC50 (HOP-62; [4]): 19.9 µM | GI50 (EKVX): 3.09 µM | TGI (EKVX): 11 µM | CC50 (EKVX; [4]): 37.1 µM | GI50 (MOLT-4): 1580 nM | TGI (MOLT-4): 5.24 µM | CC50 (MOLT-4; [4]): > 100 µM | GI50 (CCRF-CEM): 1280 nM | TGI (CCRF-CEM): 3.23 µM | CC50 (CCRF-CEM; [4]): 8.12 µM | growth at 100 µM (MCF7 [3]): 43%
